Experimental findings from article PMC6112128, “Discovery and characterization of the tubercidin biosynthetic pathway from Streptomyces tubercidicus NBRC 13090” (Microbial Cell Factories, 2018) are described below.

One test deals with T1, TubE (Streptomyces tubercidicus, UniProt A0A384YVR8).
T1 construct: gene Stube_10250; full-length, 194 aa, His6-tagged (pET28a NdeI-EcoRI), E. coli Rosetta (DE3)/pLysS
T1 sequence (A0A384YVR8 1-194): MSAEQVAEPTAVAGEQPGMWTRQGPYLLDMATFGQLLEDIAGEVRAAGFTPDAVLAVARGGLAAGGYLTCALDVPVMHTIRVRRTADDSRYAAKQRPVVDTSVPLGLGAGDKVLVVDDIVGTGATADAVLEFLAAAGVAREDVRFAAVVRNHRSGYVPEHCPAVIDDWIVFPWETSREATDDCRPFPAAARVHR
As to the kind of experiment: HPLC and LC-MS product detection; product NMR. Particulars: 1 mM CDG, 2 mM PRPP, 5 mM MgCl2, 1 mM DTT, 100 mM PBS pH 7.5, 30 °C, 8 h. It is filed as biochemical.

A further test deals with T2, TubD (Streptomyces tubercidicus, UniProt A0A384YXG2).
T2 construct: gene Stube_10260; full-length, 385 aa, His6-tagged (pET28a NdeI-EcoRI), E. coli Rosetta (DE3)/pLysS
T2 sequence (A0A384YXG2 1-385): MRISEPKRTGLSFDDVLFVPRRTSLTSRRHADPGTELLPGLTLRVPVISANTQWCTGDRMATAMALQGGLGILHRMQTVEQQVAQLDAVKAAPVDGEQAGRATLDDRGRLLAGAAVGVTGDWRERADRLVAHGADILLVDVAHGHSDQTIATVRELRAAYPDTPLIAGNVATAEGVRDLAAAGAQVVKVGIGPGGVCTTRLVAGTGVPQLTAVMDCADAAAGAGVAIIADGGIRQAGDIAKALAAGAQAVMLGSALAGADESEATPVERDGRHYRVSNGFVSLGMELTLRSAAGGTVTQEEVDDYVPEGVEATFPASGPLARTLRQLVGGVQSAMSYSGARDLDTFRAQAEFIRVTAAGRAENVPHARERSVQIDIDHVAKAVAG
In words: LC-MS detection of IMP. It is filed as biochemical. The settings on record: 1 mM NADPH, 1 mM GMP, 50 mM KCl, 1 mM DTT, 2 mM EDTA, 100 mM Tris-HCl pH 7.5, 30 °C, 4 h.

SMILES strings stand for the structures.

On to `Nc1nc2[nH]cc(C(=O)O)c2c(=O)[nH]1` [CDG], for which, at TubE, the “HPLC and LC-MS product detection; product NMR” value is “all of the data demonstrate that TubE functions as a CDG-specific phosphoribosyltransferase”.
`NC(=O)C1=CN([C@@H]2O[C@H](COP(=O)(O)OP(=O)(O)OC[C@H]3O[C@@H](n4cnc5c(N)ncnc54)[C@H](OP(=O)(O)O)[C@@H]3O)[C@@H](O)[C@H]2O)C=CC1` [NADPH]: the “LC-MS detection of IMP” value at TubD is recorded as “this cofactor could not replace NADPH to supply reducing equivalents for the TubD reaction”.
For the compound `O=P(O)(O)OC[C@H]1O[C@H](OP(=O)(O)OP(=O)(O)O)[C@H](O)[C@@H]1O` [PRPP], on TubE, the “HPLC and LC-MS product detection; product NMR” value was “HPLC profile of the TubE reaction using PRPP and CDG as substrates”.
